These results are taken from ChEMBL document CHEMBL3046302, “Antifungal constituents from the seeds of Allium fistulosum L” (J Agric Food Chem, 2002).

The test system of this test is Phytophthora capsici. Kind of test: Antifungal activity against Phytophthora capsici assessed as fungal growth inhibition at 0.3 to 0.5 mM after 0.5 to 4.5 days. The format is functional, organism-based.

Active and inactive are the calls of the source. The rule behind the calls is not given here.

On to `CCCCCCC(O)C(O)/C=C/C(O)CCCCCCC(=O)O` (configuration not stated), for which the “growth inhibition (GI)” value is “Active”.
The value for `CCCCCCC(O)C(O)/C=C/C(O)CCCCCCC(=O)OCC(O)CO` (configuration not stated) was “Active”.
